Experimental findings from patent US20090203753A1, “7-(2-amino-1-hydroxy-ethyl)-4-hydroxybenzothiazol-2(3H)-one-derivatives as beta2 adrenoreceptor agonists” (AstraZeneca AB, priority 2005, published 2009) are described below.

For one assay, the target named is T1, β2 receptor (Homo sapiens, UniProt P07550).
T1 construct: endogenous in cells; host or cells: H292 cells
The assay can be described thus: Alternative adrenergic β2 mediated cAMP production in H292 cells (60 minutes with test compound). It is filed as cell-based. Conditions: for EC50: cAMP, 60 minutes incubation with compound, 300 μM rolipram, read-out: β2 pEC50 (converted); for β2 Int Act: fraction relative to the maximum activity determined for formoterol, 60 minutes incubation. As for the experimental part:
Alternative Adrenergic (β2 Mediated cAMP Production
H292 cells were grown in 225 cm2 flasks incubator at 37° C., 5% CO2 in RPMI medium containing, 10% (v/v) FBS (foetal bovine serum) and 2 mM L-glutamine.
Adherent H292 cells were removed from tissue culture flasks by treatment with Accutase™ cell detachment solution for 15 minutes. Flasks were incubated for 15 minutes in a humidified incubator at 37° C., 5% CO2. Detached cells were re-suspended in RPMI media (containing 10% (v/v) FBS and 2 mM L-glutamine) at 0.05×10^6 cells per mL. 5000 cells in 100 μL were added to each well of a tissue-culture-treated 96-well plate and the cells incubated overnight in a humidified incubator at 37° C., 5% CO2. The culture media was removed and cells were washed twice with 100 μL assay buffer and replaced with 50 μL assay buffer (HBSS solution containing 10 mM HEPES pH7.4 and 5 mM glucose). Cells were rested at room temperature for 20 minutes after which time 25 μL of rolipram (1.2 mM made up in assay buffer containing 2.4% (v/v) dimethylsulphoxide) was added. Cells were incubated with rolipram for 10 minutes after which time test compounds were added and the cells were incubated for 60 minutes at room temperature. The final rolipram concentration in the assay was 300 μM and final vehicle concentration was 1.6% (v/v) dimethylsulphoxide. The reaction was stopped by removing supernatants, washing once with 100 μL assay buffer and replacing with 50 μL lysis buffer. The cell monolayer was frozen at −80° C. for 30 minutes (or overnight).
The concentration of cAMP (cyclic adenosine monophosphate) in the cell lysate was determined using AlphaScreen™ methodology. The frozen cell plate was thawed for 20 minutes on a plate shaker then 10 μL of the cell lysate was transferred to a 96-well white plate. 40 μL of mixed AlphaScreen™ detection beads pre-incubated with biotinylated cAMP, was added to each well and the plate incubated at room temperature for 10 hours in the dark. The AlphaScreen™ signal was measured using an EnVision spectrophotometer (Perkin-Elmer Inc.) with the recommended manufacturer's settings. cAMP concentrations were determined by reference to a calibration curve determined in the same experiment using standard cAMP concentrations. Concentration response curves for agonists were constructed and data was fitted to a four parameter logistic equation to determine both the pEC50 and Intrinsic Activity. […]

For assay [1], the target named is T2, recombinant human Dopamine Subtype D2s receptors (Homo sapiens, UniProt P14416).
T2 construct: purchased Perkin Elmer
T2 sequence (P14416 1-414 isoform P14416-2): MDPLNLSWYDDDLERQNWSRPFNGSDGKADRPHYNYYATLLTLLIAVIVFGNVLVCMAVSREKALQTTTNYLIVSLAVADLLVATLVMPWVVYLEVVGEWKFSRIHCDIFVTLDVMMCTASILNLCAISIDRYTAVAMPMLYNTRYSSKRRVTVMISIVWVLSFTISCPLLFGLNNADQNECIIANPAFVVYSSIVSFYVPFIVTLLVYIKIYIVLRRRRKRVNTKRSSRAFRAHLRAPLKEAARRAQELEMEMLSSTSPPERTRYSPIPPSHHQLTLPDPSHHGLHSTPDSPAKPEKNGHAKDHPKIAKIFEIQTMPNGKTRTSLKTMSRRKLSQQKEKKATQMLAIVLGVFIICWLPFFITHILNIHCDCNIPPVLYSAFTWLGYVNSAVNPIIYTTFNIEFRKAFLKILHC
The assay can be described thus: Dopamine D2 selectivity assay, [3H]-spiperone binding to membranes. The note with it: read-out: D2 bind pIC50 (converted). As for the experimental part:
Membranes containing recombinant human Dopamine Subtype D2s receptors were obtained from Perkin Elmer. These were diluted in Assay Buffer (50 mM HEPES, […], 120 mM NaCl, 0.1% gelatin, pH 7.4) to provide a final concentration of membranes that gave a clear window between maximum and minimum specific binding.
(§1) Assays were performed in U-bottomed 96-well polypropylene plates. 30 μL [^3H]-spiperone (0.16 nM final concentration) and 30 μL of test compound (10× final concentration) were added to each test well. For each assay plate 8 replicates were obtained for [^3H]-spiperone binding in the presence of 30 μL vehicle (10% (v/v) DMSO in Assay Buffer; defining maximum binding) or 30 μL Haloperidol (10 μM final concentration; defining non-specific binding (NSB)). Membranes were then added to achieve a final volume of 300 μL. The plates were incubated for 2 hours at room temperature and then filtered onto PEI coated GF/B filter plates, pre-soaked for 1 hour in Assay Buffer, using a 96-well plate Tomtec cell harvester. Five washes with 250 μL wash buffer (50 mM HEPES, 1 mM EDTA, 120 mM NaCl, pH 7.4) were performed at 4° C. to remove unbound radioactivity. The plates were dried then sealed from underneath using Packard plate sealers and MicroScint-O (50 μL) was added to each well. The plates were sealed (TopSeal A) and filter-bound radioactivity was measured with a scintillation counter (TopCount, Packard BioScience) using a 3-minute counting protocol.
(§2) Total specific binding (B0) was determined by subtracting the mean NSB from the mean maximum binding. NSB values were also subtracted from values from all other wells.

Assay [2] deals with T3, recombinant human α1D receptor (Homo sapiens, UniProt P25100).
T3 construct: expressed in transfected cells; host or cells: HEK293
T3 sequence (P25100 1-572): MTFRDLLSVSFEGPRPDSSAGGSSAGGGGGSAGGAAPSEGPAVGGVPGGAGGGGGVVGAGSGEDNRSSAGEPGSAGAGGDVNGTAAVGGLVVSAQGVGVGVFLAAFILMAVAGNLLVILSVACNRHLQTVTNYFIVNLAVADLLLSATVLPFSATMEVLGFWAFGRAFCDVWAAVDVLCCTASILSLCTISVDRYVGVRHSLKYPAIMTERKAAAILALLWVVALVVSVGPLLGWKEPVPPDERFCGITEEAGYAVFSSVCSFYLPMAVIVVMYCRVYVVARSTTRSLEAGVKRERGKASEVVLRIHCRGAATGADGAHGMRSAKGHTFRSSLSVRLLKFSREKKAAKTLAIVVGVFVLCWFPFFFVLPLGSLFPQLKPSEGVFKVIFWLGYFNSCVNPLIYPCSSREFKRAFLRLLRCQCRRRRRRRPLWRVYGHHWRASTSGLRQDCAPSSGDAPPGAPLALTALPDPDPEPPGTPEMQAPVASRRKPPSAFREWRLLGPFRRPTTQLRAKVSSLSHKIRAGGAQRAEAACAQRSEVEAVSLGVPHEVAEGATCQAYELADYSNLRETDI
The experiment in a line: Adrenergic α1D selectivity assay, [3H]-prazosin binding to HEK293 membranes. The note with it: read-out: α1 bind pIC50 (converted). How it is done: Membranes were prepared from human embryonic kidney 293 (HEK293) cells expressing recombinant human α1D receptor. These were diluted in Assay Buffer (50 mM HEPES, 1 mM EDTA, 0.1% gelatin, pH 7.4) to provide a final concentration of membranes that gave a clear window between maximum and minimum specific binding.
as §1, with “10” for “30”, “[^3H]-prazosin (0.3” for “[^3H]-spiperone (0.16”, “[^3H]-prazosin” for “[^3H]-spiperone”, “BMY7378” for “Haloperidol”, “100” for “300”, “EDTA,” for “EDTA, 120 mM NaCl,”
as §2

In assay [3] the target is T4, recombinant human adrenergic beta 1 receptors (Homo sapiens, UniProt P08588).
T4 construct: purchased Euroscreen
T4 sequence (P08588 whole entry): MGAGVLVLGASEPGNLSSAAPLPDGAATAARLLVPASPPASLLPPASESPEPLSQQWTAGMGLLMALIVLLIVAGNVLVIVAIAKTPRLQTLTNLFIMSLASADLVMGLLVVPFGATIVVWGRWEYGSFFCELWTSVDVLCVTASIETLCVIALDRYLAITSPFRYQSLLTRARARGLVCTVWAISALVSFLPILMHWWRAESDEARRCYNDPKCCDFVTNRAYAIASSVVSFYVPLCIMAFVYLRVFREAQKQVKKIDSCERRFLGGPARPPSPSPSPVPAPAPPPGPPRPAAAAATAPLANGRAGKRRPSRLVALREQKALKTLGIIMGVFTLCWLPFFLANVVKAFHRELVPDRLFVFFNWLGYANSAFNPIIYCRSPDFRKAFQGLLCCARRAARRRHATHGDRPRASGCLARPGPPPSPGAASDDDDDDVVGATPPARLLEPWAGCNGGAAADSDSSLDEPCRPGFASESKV
The experiment in a line: Adrenergic β1 selectivity assay, [125I]-Iodocyanopindolol binding to membranes. The note with it: inhibition of [125I]-Iodocyanopindolol binding (0.036 nM); read-out: β1 bind pIC50 (converted). As for the experimental part:
Membranes containing recombinant human adrenergic beta 1 receptors were obtained from Euroscreen. These were diluted in Assay Buffer (50 mM HEPES, 1 mM EDTA, 120 mM NaCl, 0.1% gelatin, pH 7.4) to provide a final concentration of membranes that gave a clear window between maximum and minimum specific binding.
as §1, with “10” for “30”, “[^125I]-Iodocyanopindolol (0.036” for “[^3H]-spiperone (0.16”, “[^125I]-Iodocyanopindolol” for “[^3H]-spiperone”, “Propranolol” for “Haloperidol”, “100” for “300”
as §2

T1 sequence (P07550 whole entry): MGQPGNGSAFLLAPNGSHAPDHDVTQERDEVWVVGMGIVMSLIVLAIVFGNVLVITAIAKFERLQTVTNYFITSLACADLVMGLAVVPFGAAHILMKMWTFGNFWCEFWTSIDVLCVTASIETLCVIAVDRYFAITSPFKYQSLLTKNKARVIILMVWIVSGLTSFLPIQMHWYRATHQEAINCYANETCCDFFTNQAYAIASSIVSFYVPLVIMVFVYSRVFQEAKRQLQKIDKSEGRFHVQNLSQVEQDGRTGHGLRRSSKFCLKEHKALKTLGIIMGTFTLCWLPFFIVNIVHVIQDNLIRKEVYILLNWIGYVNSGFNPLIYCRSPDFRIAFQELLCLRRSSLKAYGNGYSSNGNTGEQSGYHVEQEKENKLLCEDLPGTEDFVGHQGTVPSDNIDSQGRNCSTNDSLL

Regarding `CCN(CC)CCN(CCNC[C@H](O)c1ccc(O)c2[nH]c(=O)sc12)C(=O)CCOCCc1cccc2ccccc12` [Example 6, N-[2-(Diethylamino)ethyl]-N-(2-{[(2R)-2-hydroxy-2-(4-hydroxy-2-oxo-2,3-dihydro-1,3-benzothiazol-7-yl)ethyl]amino}ethyl)-3-[2-(1-naphthyl)ethoxy]propanamide], on β2 receptor, the EC50 was 0.002 µM. Moreover, on β2 receptor, the “β2 Int Act” value was found to be 0.9. Also, the figures for the IC50 in assay [1], in assay [2] and in assay [3] were 2.51 µM, 2.51 µM and 0.631 µM, respectively.
Consider `CCN(CC)CCN(CCNC[C@H](O)c1ccc(O)c2[nH]c(=O)sc12)C(=O)CCOCCc1cccc(Cl)c1` [Example 9, 3-[2-(3-Chlorophenyl)ethoxy]-N-[2-(diethylamino)ethyl]-N-(2-{[(2R)-2-hydroxy-2-(4-hydroxy-2-oxo-2,3-dihydro-1,3-benzothiazol-7-yl)ethyl]amino}ethyl)propanamide], for which the EC50 at β2 receptor was 0.00398 µM. Also, on β2 receptor, the “β2 Int Act” value is 0.9. Also, the IC50 in assay [1] was above 10 µM; in assay [2] it was 2 µM; in assay [3], 1.58 µM.
